Laboratory results: the CheMixHub viscosity set
“And” between values parts separate entries of the source, which are not always exact repeats. Identical values can stand only once. ± gives the uncertainty stated by the source.

Test: xn = mol fraction of the nth substance listed

O=C1CCCN1 + CO
298.15 K, 100 kPa
Settings | viscosity
x1 = 0.0098 | 0.568 ± 0.011 mPa·s
x1 = 0.0194 | 0.587 ± 0.011 mPa·s
x1 = 0.0295 | 0.641 ± 0.011 mPa·s
x1 = 0.0392 | 0.657 ± 0.011 mPa·s
x1 = 0.0499 | 0.687 ± 0.011 mPa·s
x1 = 0.059 | 0.671 ± 0.011 mPa·s
x1 = 0.0688 | 0.691 ± 0.011 mPa·s
x1 = 0.078 | 0.708 ± 0.011 mPa·s
x1 = 0.0883 | 0.755 ± 0.011 mPa·s
x1 = 0.0973 | 0.759 ± 0.023 mPa·s
x1 = 0.0988 | 0.906 ± 0.023 mPa·s
x1 = 0.2022 | 1.133 ± 0.013 mPa·s
x1 = 0.2963 | 1.432 ± 0.015 mPa·s
x1 = 0.3984 | 1.937 ± 0.019 mPa·s
x1 = 0.4592 | 2.346 ± 0.023 mPa·s
x1 = 0.5694 | 3.304 ± 0.033 mPa·s
x1 = 0.6844 | 4.749 ± 0.05 mPa·s
x1 = 0.7834 | 6.52 ± 0.073 mPa·s
x1 = 0.8988 | 9.529 ± 0.11 mPa·s and 9.56 ± 0.12 mPa·s
x1 = 0.9076 | 9.83 ± 0.12 mPa·s
x1 = 0.9213 | 10.34 ± 0.13 mPa·s
x1 = 0.9308 | 10.66 ± 0.13 mPa·s
x1 = 0.9383 | 10.97 ± 0.14 mPa·s
x1 = 0.9496 | 11.39 ± 0.14 mPa·s
x1 = 0.9615 | 11.92 ± 0.15 mPa·s
x1 = 0.9741 | 12.35 ± 0.15 mPa·s
x2 = 0.0101 | 13.03 ± 0.17 mPa·s

Cc1cc(C)cc(C)c1 + C1CCOC1
298.15 K, 101 kPa
Settings | viscosity [mPa·s]
x2 = 0.0735 | 0.5973 ± 0.01
x2 = 0.1513 | 0.5921 ± 0.01
x2 = 0.2274 | 0.5863 ± 0.01
x2 = 0.2986 | 0.5793 ± 0.01
x2 = 0.3672 | 0.5728 ± 0.01
x2 = 0.4305 | 0.5659 ± 0.0099
x2 = 0.4912 | 0.5568 ± 0.0098
x2 = 0.6055 | 0.5353 ± 0.0094
x2 = 0.6784 | 0.5237 ± 0.0092
x2 = 0.7516 | 0.512 ± 0.009
x2 = 0.828 | 0.4999 ± 0.0088
x2 = 0.879 | 0.4857 ± 0.0086
x2 = 0.9412 | 0.4724 ± 0.0083

[Cl-].[Cl-].[Cl-].[Cl-].[Sn+4] + CCCC(=O)OC
101 kPa, x1 = 0.335
Settings | viscosity [mPa·s]
298.15 K | 22.06 ± 0.56
323.15 K | 4.849 ± 0.16

O=S(=O)(O)CCCN1CCOCC1 + O
viscosity [mPa·s], 101.3 kPa
Settings | x1 = 0.003708 | x1 = 0.007256 | x1 = 0.009684 | x1 = 0.01083 | x1 = 0.01439 | x1 = 0.0179
298.15 K | 0.947 ± 0.038 | 1.027 ± 0.042 | 1.07 ± 0.043 | 1.098 ± 0.045 | 1.189 ± 0.048 | 1.276 ± 0.052
308.15 K | 0.765 ± 0.031 | 0.826 ± 0.034 | 0.863 ± 0.035 | 0.886 ± 0.036 | 0.963 ± 0.039 | 1.03 ± 0.042
318.15 K | 0.634 ± 0.026 | 0.684 ± 0.028 | 0.711 ± 0.029 | 0.733 ± 0.03 | 0.797 ± 0.032 | 0.851 ± 0.035

Cc1cc(C)cc(C)c1 + c1ccccc1
viscosity [mPa·s], 101 kPa
Settings | x1 = 0.0992 | x1 = 0.1997 | x1 = 0.3013 | x1 = 0.4024 | x1 = 0.504 | x1 = 0.5997 | x1 = 0.7035 | x1 = 0.7997 | x1 = 0.9018
303 K | 0.5455 ± 0.0039 | 0.5407 ± 0.0039 | 0.5421 ± 0.004 | 0.546 ± 0.0041 | 0.5511 ± 0.0042 | 0.5579 ± 0.0043 | 0.5714 ± 0.0045 | 0.5833 ± 0.0047 | 0.596 ± 0.0049
313 K | 0.4826 ± 0.0035 | 0.4807 ± 0.0035 | 0.4822 ± 0.0036 | 0.4861 ± 0.0037 | 0.4905 ± 0.0038 | 0.4999 ± 0.0039 | 0.5097 ± 0.0041 | 0.5201 ± 0.0042 | 0.5336 ± 0.0044
323 K | 0.4308 ± 0.0032 | 0.4229 ± 0.0032 | 0.4325 ± 0.0033 | 0.4374 ± 0.0034 | 0.439 ± 0.0035 | 0.4507 ± 0.0036 | 0.4587 ± 0.0037 | 0.4681 ± 0.0039 | 0.4791 ± 0.004

O=P(O)(O)OP(=O)(O)O + O
viscosity, 101 kPa
Settings | 313 K | 323 K
x1 = 0.009 | 0.95 ± 0.03 mPa·s and 0.8 ± 0.02 mPa·s | –
x1 = 0.015 | 1.49 ± 0.04 mPa·s and 1.2 ± 0.03 mPa·s | –
x1 = 0.02 | 1.75 ± 0.05 mPa·s | 1.39 ± 0.04 mPa·s
x1 = 0.026 | 2.86 ± 0.08 mPa·s | 2.38 ± 0.07 mPa·s
x1 = 0.03 | 4.79 ± 0.13 mPa·s and 3.85 ± 0.11 mPa·s | –
x1 = 0.0306 | 3.76 ± 0.11 mPa·s | 2.03 ± 0.06 mPa·s
x1 = 0.04 | 5.82 ± 0.16 mPa·s and 4.7 ± 0.13 mPa·s | –
x1 = 0.045 | 7.65 ± 0.21 mPa·s | 6.05 ± 0.17 mPa·s
x1 = 0.051 | 9.8 ± 0.27 mPa·s and 6.88 ± 0.19 mPa·s | –
x1 = 0.055 | 10.9 ± 0.3 mPa·s and 8.82 ± 0.25 mPa·s | –
x1 = 0.062 | 15.6 ± 0.44 mPa·s | 12.16 ± 0.34 mPa·s

Cc1cc(C)cc(C)c1 + CCCO
293.15 K, 101 kPa
Settings | viscosity [mPa·s]
x2 = 0.2 | 0.748 ± 0.015
x2 = 0.4 | 0.855 ± 0.017
x2 = 0.6 | 1.075 ± 0.02
x2 = 0.8 | 1.419 ± 0.026

Cc1cc(C)cc(C)c1 + CCO
293.15 K, 101 kPa
Settings | viscosity [mPa·s]
x2 = 0.2 | 0.718 ± 0.014
x2 = 0.4 | 0.764 ± 0.015
x2 = 0.6 | 0.854 ± 0.016
x2 = 0.8 | 0.983 ± 0.019

Cc1cc(C)cc(C)c1 + CCC(C)=O
307.35 K, 101.33 kPa
Settings | viscosity [mPa·s]
x2 = 0.1256 | 0.549 ± 0.0096
x2 = 0.3266 | 0.5 ± 0.0092
x2 = 0.4175 | 0.479 ± 0.0091
x2 = 0.5581 | 0.443 ± 0.0088
x2 = 0.6213 | 0.428 ± 0.0086
x2 = 0.7133 | 0.409 ± 0.0085
x2 = 0.8019 | 0.389 ± 0.0083
x2 = 0.9035 | 0.368 ± 0.0082

CN(c1ccccc1)c1ccccc1 + Oc1ccccc1Cl
viscosity [mPa·s], 101 kPa
Settings | x2 = 0.1862 | x2 = 0.3326 | x2 = 0.47 | x2 = 0.5927 | x2 = 0.6593 | x2 = 0.7583 | x2 = 0.8455 | x2 = 0.9249
293.15 K | 6.47 ± 0.07 | 5.95 ± 0.07 | 5.53 ± 0.06 | 5.2 ± 0.06 | 5.02 ± 0.06 | 4.79 ± 0.06 | 4.59 ± 0.05 | 4.4 ± 0.05
303.15 K | 4.635 ± 0.05 | 4.305 ± 0.046 | 4.03 ± 0.04 | 3.805 ± 0.041 | 3.685 ± 0.039 | 3.51 ± 0.04 | 3.36 ± 0.04 | 3.215 ± 0.035
313.15 K | 3.5 ± 0.03 | 3.25 ± 0.03 | 3.04 ± 0.03 | 2.85 ± 0.03 | 2.75 ± 0.03 | 2.6 ± 0.03 | 2.49 ± 0.03 | 2.39 ± 0.02

O=S=O + CCOC(C)=O
298.15 K, 101 kPa
Settings | viscosity [mPa·s]
x1 = 0.115 | 0.4299 ± 0.011
x1 = 0.236 | 0.4289 ± 0.011
x1 = 0.35 | 0.4239 ± 0.011

O=S=O + ClC(Cl)(Cl)Cl
298.15 K, 101 kPa
Settings | viscosity [mPa·s]
x1 = 0.00784 | 0.8572 ± 0.022
x1 = 0.0163 | 0.841 ± 0.022
x1 = 0.0185 | 0.8352 ± 0.022
x1 = 0.0267 | 0.82 ± 0.021

O=C1CCCN1 + CC(C)CO
Settings | viscosity [mPa·s]
303.15 K, 101 kPa, x1 = 0.9753 | 10.15 ± 0.76

CN(c1ccccc1)c1ccccc1 + Oc1ccccc1
101 kPa
Settings | viscosity [mPa·s]
293.25 K, x2 = 0.0915 | 7.08 ± 0.08
293.25 K, x2 = 0.169 | 7.15 ± 0.08
293.25 K, x2 = 0.2877 | 7.3 ± 0.08
293.25 K, x2 = 0.4271 | 7.64 ± 0.11
293.25 K, x2 = 0.5326 | 7.98 ± 0.1
293.25 K, x2 = 0.6464 | 8.45 ± 0.11
293.25 K, x2 = 0.7197 | 8.85 ± 0.14
293.25 K, x2 = 0.7988 | 9.35 ± 0.15
293.25 K, x2 = 0.8785 | 9.95 ± 0.11
293.25 K, x2 = 0.942 | 10.48 ± 0.15
303.15 K, x2 = 0.0926 | 5.1 ± 0.06
303.15 K, x2 = 0.1813 | 5.13 ± 0.06
303.15 K, x2 = 0.328 | 5.19 ± 0.05
303.15 K, x2 = 0.5156 | 5.42 ± 0.06
303.15 K, x2 = 0.6595 | 5.7 ± 0.07
303.15 K, x2 = 0.7615 | 5.97 ± 0.06
303.15 K, x2 = 0.8443 | 6.26 ± 0.07
303.15 K, x2 = 0.9 | 6.5 ± 0.07
303.15 K, x2 = 0.9463 | 6.73 ± 0.08
313.15 K, x2 = 0.0926 | 3.785 ± 0.037
313.15 K, x2 = 0.1813 | 3.76 ± 0.04
313.15 K, x2 = 0.328 | 3.77 ± 0.04
313.15 K, x2 = 0.5156 | 3.88 ± 0.04
313.15 K, x2 = 0.6595 | 4.02 ± 0.04
313.15 K, x2 = 0.7615 | 4.15 ± 0.04
313.15 K, x2 = 0.8443 | 4.28 ± 0.04
313.15 K, x2 = 0.9 | 4.4 ± 0.05
313.15 K, x2 = 0.9463 | 4.51 ± 0.05
